According to PubChem BioAssay AID2060349 (Molecular Pharmacology Branch, DTP, NCI, 2025):
Values joined by “and” are separate entries in the source; they are usually repeats but may differ in a detail not shown here. Equal entries are not always repeated.

System: 762968-020-R-J2-PDC spheroids viability
Assay: Anticancer human tumor 762968-020-R-J2-PDC patient-derived colon carcinoma cell line growth inhibition [TAK]
Details: spheroids with HUVEC and MSC; for viability, T/C: stronger effect = lower value; for IC50: curve of compound
Summary of the method: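 Tumor cells were grown as spheroids with HUVEC and hMSC (60:25:15) and treated with targeted agents combined with TAK-243 or ipatasertib. Drugs were tested in half-log steps down from near the clinical Cmax, or from 10 microM where Cmax was unknown.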
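Further: spheroids exposed to drug for 7 days before readout.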
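Wherever viability, T/C is given: 100% = DMSO vehicle control wells.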

SMILES	IC50	viability, T/C (compound 0.000316 µM)	viability, T/C (compound 0.001 µM)	viability, T/C (compound 0.00316 µM)	viability, T/C (compound 0.01 µM)	viability, T/C (compound 0.0316 µM)	viability, T/C (compound 0.1 µM)	viability, T/C (compound 0.316 µM)	viability, T/C (compound 1 µM)	viability, T/C (compound 3.16 µM)	viability, T/C (compound 10 µM)	viability, T/C (compound 94.9 pM)	viability, T/C (compound 0.0003 µM)	viability, T/C (compound 0.000949 µM)	viability, T/C (compound 0.003 µM)	viability, T/C (compound 0.00949 µM)	viability, T/C (compound 0.03 µM)
COC1CC2CCC(C)C(O)(O2)C(=O)C(=O)N2CCCCC2C(=O)OC(C(C)CC2CCC(OCCO)C(OC)C2)CC(=O)C(C)C=C(C)C(O)C(OC)C(=O)C(C)CC(C)C=CC=CC=C1C (stereo not given)	> 100 nM	103% and 106%	99.4% and 100%	104% and 96.8%	105% and 107%	101% and 107%	99.1% and 95.3%										
CC(C)CC(NC(=O)CNC(=O)c1cc(Cl)ccc1Cl)B1OC(=O)CC(CC(=O)O)(C(=O)O)O1 (stereo not given)	> 100 nM	100% and 110%	109% and 98.2%	104% and 108%	97.5% and 107%	96.1% and 98%	78.6% and 80.6%										

Second part, led by results:

IC50	SMILES	viability, T/C (compound 0.000316 µM)	viability, T/C (compound 0.001 µM)	viability, T/C (compound 0.00316 µM)	viability, T/C (compound 0.01 µM)	viability, T/C (compound 0.0316 µM)	viability, T/C (compound 0.1 µM)	viability, T/C (compound 0.316 µM)	viability, T/C (compound 1 µM)	viability, T/C (compound 3.16 µM)	viability, T/C (compound 10 µM)	viability, T/C (compound 94.9 pM)	viability, T/C (compound 0.0003 µM)	viability, T/C (compound 0.000949 µM)	viability, T/C (compound 0.003 µM)	viability, T/C (compound 0.00949 µM)	viability, T/C (compound 0.03 µM)
> 10000 nM	Cc1nc(NC(=O)N2CCCC2C(N)=O)sc1-c1ccnc(C(C)(C)C(F)(F)F)c1 (stereo not given)					113% and 104%	106% and 95.2%	106% and 93.9%	92.5% and 89.1%	91.7% and 87.4%	92.9% and 87.8%						
> 100 nM	CC(C)n1nc(-c2ccc3oc(N)nc3c2)c2c(N)ncnc21	99% and 96.9%	99% and 101%	98.2% and 101%	94.8% and 99.8%	89.5% and 103%	66.5% and 83.3%										
17.8 nM and 20.4 nM	CC(=O)Nc1cccc(-n2c(=O)n(C3CC3)c(=O)c3c(Nc4ccc(I)cc4F)n(C)c(=O)c(C)c32)c1											98.7% and 103%	103% and 97.5%	97.3%	86.9% and 80.5%	60.6% and 73.2%	41.2% and 39%
